Where “and” joins values, the source holds several entries; their conditions need not be identical. Equal values may be shown once.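 Protocol summary: plate cells (96-well), add compound at 5 concentrations, incubate 48 h, interpolate endpoints linearly. GI50 is the concentration that inhibits growth by half. At the TGI there is no net growth.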
What was measured:
Test in all cases: NCI-60 cell line screen, 48 h
[1] = tested on: NCI-H460 lung
[2] = tested on: OVCAR-3 ovarian
[3] = tested on: MALME-3M melanoma
[4] = tested on: SK-MEL-2 melanoma
[5] = tested on: SW-620 colon
[6] = tested on: MOLT-4 leukemia
[7] = tested on: OVCAR-8 ovarian
[8] = tested on: M14 melanoma
[9] = tested on: K-562 leukemia
[10] = tested on: NCI-H23 lung

| Compound | TGI [1] [µM] | TGI [2] [µM] | TGI [3] [µM] | TGI [4] [µM] | TGI [5] [µM] | TGI [6] [µM] | TGI [7] | TGI [8] [µM] | TGI [9] [µM] | TGI [10] [µM] | GI50 [1] [µM] | GI50 [2] [µM] | GI50 [4] [µM] | GI50 [5] [µM] | GI50 [6] [µM] | GI50 [7] [µM] | GI50 [8] [µM] | GI50 [9] [µM] | GI50 [10] [µM] |
| --- | --- | --- | --- | --- | --- | --- | --- | --- | --- | --- | --- | --- | --- | --- | --- | --- | --- | --- | --- |
| CC1(CCOCc2ccccc2)NC(=O)NC1=O (configuration not stated) | > 100 | > 100 | > 100 | > 100 | > 100 | > 100 | > 100 µM | > 100 | > 100 | > 100 | – | – | – | – | – | – | – | – | – |
| COc1ccc(S(=O)(=O)c2nnc(S(=O)(=O)Cc3ccccc3)s2)cc1 | 38.1 | > 100 | – | 45.1 | 44 | – | 49.4 µM | 33.1 | > 100 | 62.3 | – | – | – | – | – | – | – | – | – |
| Cn1ccc(C(=O)NCCN(CCNC(=O)c2ccn(C)c(=O)c2O)CCNC(=O)c2cccc(=O)n2O)c(O)c1=O | > 100 | > 100 | > 100 | > 100 | > 100 | – | > 100 µM | > 100 | > 100 | > 100 | – | – | – | – | – | – | – | – | – |
| O=c1cnn(C/C=C/CO)c(=O)[nH]1 | > 100 | > 100 | > 100 | > 100 | > 100 | – | > 100 µM | > 100 | > 100 | > 100 | – | – | – | – | – | – | – | – | – |
| COc1ccc(-[n+]2nc(S(=O)(=O)O)c(/C=C/c3ccc(N(C)C)cc3)cc2C#N)cc1 | – | > 100 | – | > 100 | > 100 | > 100 | > 100 µM | > 100 | > 100 | > 100 | – | – | – | – | – | – | – | – | – |
| O=[N+]([O-])c1ccc2c(c1)C1=C(CO2)Cc2ccccc2O1 | – | 41.6 | 70.4 | > 100 | 53.5 | – | > 100 µM | 37.4 | > 100 | 59.2 | – | – | – | – | – | – | – | – | – |
| Nc1ncnc2c1ncn2[C@@H]1C[C@@H]1CO | > 100 | > 100 | > 100 | > 100 | > 100 | > 100 | > 100 µM | – | > 100 | > 100 | – | – | – | – | – | – | – | – | – |
| NC(=O)C(C(N)=O)=C(O)C(=O)/C=C(\O)c1ccccc1 | > 100 | > 100 | > 100 | > 100 | > 100 | – | > 100 µM | > 100 | 29.9 | > 100 | – | – | – | – | – | – | – | – | – |
| Cn1c(=O)c2c(nc(Cc3ccccc3)n2CC(=O)O)n(C)c1=O | > 100 | > 100 | > 100 | > 100 | > 100 | > 100 | > 100 µM | > 100 | – | > 100 | – | – | – | – | – | – | – | – | – |
| OC1C#CCSCC#C/C=C\1 (configuration not stated) | 36.5 | > 100 | > 100 | > 100 | 36.6 | – | 77 µM | > 100 | 75.9 | > 100 | – | – | – | – | – | – | – | – | – |
| CCOC(=O)CN1C(=O)c2ccc(NC(=O)C(=O)O)cc2S1(=O)=O | > 100 | – | > 100 | > 100 | > 100 | > 100 | > 100 µM | > 100 | > 100 | > 100 | – | – | – | – | – | – | – | – | – |
| Cn1c(=O)n(C2(C)C[Se]C2)c2ccccc21 | > 100 | – | – | > 100 | > 100 | > 100 | > 100 µM | > 100 | > 100 | > 100 | – | – | – | – | – | – | – | – | – |
| O=C(O)CCC(NC(=O)c1ccc(Nc2nc3cc(C(F)(F)F)ccc3nc2-c2ccccc2)cc1)C(=O)O (configuration not stated) | > 100 | > 100 | > 100 | > 100 | > 100 | > 100 | > 100 µM | – | > 100 | > 100 | – | – | – | – | – | – | – | – | – |
| CSc1ncnc2c1ncn2CCC(=O)OC(C)(C)C | > 100 | > 100 | > 100 | – | > 100 | > 100 | > 100 µM | > 100 | > 100 | > 100 | – | – | – | – | – | – | – | – | – |
| COc1ccc(/C=C2\N=C(SC)N(CN3CCOCC3)C2=O)cc1 | – | > 100 | > 100 | > 100 | > 100 | > 100 | > 100 µM | > 100 | > 100 | > 100 | – | – | – | – | – | – | – | – | – |
| CC(C)C(=O)OCC1OC(n2c(Br)nc3c(=O)[nH]c(N)nc32)C(OC(=O)C(C)C)C1OC(=O)C(C)C (configuration not stated) | 58 | > 100 | > 100 | > 100 | > 100 | 48.2 | > 100 µM | > 100 | – | – | – | – | – | – | – | – | – | – | – |
| NCc1ccccc1-c1c2nc(c(-c3ccccc3CN)c3ccc([nH]3)c(-c3ccccc3CN)c3nc(c(-c4ccccc4CN)c4ccc1[nH]4)C=C3)C=C2 | 66.7 | 39.2 | – | 73.9 | > 100 | – | > 100 µM | 48.7 | 35.5 | 58.4 | – | – | – | – | – | – | – | – | – |
| Cc1c(N=Nc2ccc(Cl)cc2)c(-c2ccccc2)n(C2OC(CO)C(O)C(O)C2O)c(=S)c1C#N (configuration not stated) | 51.7 | 32.5 | 46.4 | 37.5 | 32.9 | 33.2 | – | 31.2 | 41.3 | 22.5 | – | – | – | – | – | – | – | – | – |

| Compound | TGI [1] [µM] | TGI [2] [µM] | TGI [3] [µM] | TGI [4] [µM] | TGI [5] [µM] | TGI [6] [µM] | TGI [7] | TGI [8] [µM] | TGI [9] [µM] | TGI [10] [µM] | GI50 [1] [µM] | GI50 [2] [µM] | GI50 [4] [µM] | GI50 [5] [µM] | GI50 [6] [µM] | GI50 [7] [µM] | GI50 [8] [µM] | GI50 [9] [µM] | GI50 [10] [µM] |
| --- | --- | --- | --- | --- | --- | --- | --- | --- | --- | --- | --- | --- | --- | --- | --- | --- | --- | --- | --- |
| Cn1c(=O)c(-c2ccccc2)c(N=[N+]=[N-])c2ccccc21 | > 100 | > 100 | 87.8 | – | > 100 | 85.4 | > 100 µM | > 100 | > 100 | > 100 | – | – | – | – | – | – | – | – | – |
| CC(=O)Oc1ccc2c(C)cc(=O)oc2c1OC(C)=O | – | > 100 | 99.6 | > 100 | > 100 | > 100 | > 100 µM | > 100 | > 100 | > 100 | – | – | – | – | – | – | – | – | – |
| S=C(S)NCNC(=S)S.[Zn+2] | > 100 | > 100 | > 100 | – | > 100 | > 100 | > 100 µM | > 100 | > 100 | > 100 | – | – | – | – | – | – | – | – | – |
| COC(CNC(=O)C(C)NC(=O)/C=C/c1ccccc1)OC (configuration not stated) | > 100 | – | > 100 | > 100 | > 100 | > 100 | > 100 µM | > 100 | > 100 | > 100 | – | – | – | – | – | – | – | – | – |
| CN(C)C1(N(C)C)Oc2c(c(=O)n(C)c(=O)n2C)C(c2ccccc2)C1(F)F (configuration not stated) | > 100 | > 100 | – | > 100 | > 100 | > 100 | – | > 100 | > 100 | > 100 | – | – | – | – | – | – | – | – | – |
| C=C(C)[C@@H]1CC[C@]2(C(=O)NC3CCCCC3)CC[C@]3(C)[C@H](CC[C@@H]4[C@@]5(C)CCCNC(C)(C)[C@@H]5CC[C@]43C)[C@@H]12 | 3.3 | 3.57 | – | 3.72 | 3.15 | – | – | – | – | – | 1.78 | 1.87 | 1.91 | 1.67 | – | – | – | – | – |
| N#Cc1c(N)n(-c2cccc(C(=O)O)c2)c(=O)c2cc([N+](=O)[O-])ccc12 | > 100 | – | – | > 100 | > 100 | – | > 100 µM | – | > 100 | > 100 | – | – | – | – | – | – | – | – | – |
| O=c1cc(-c2cccc3ccccc23)[nH]c2ncccc12 | > 100 | – | 0.0462 | > 100 | > 100 | > 100 | 0.889 µM and 0.453 µM | > 100 | > 100 | > 100 | 0.0392 | – | 0.0136 | – | 0.0449 | 0.0338 | 0.0275 | – | – |
| COC(=O)c1cc2ccc(N)nc2[nH]c1=O | > 100 | > 100 | > 100 | > 100 | > 100 | – | > 100 µM | > 100 | – | > 100 | – | – | – | – | – | – | – | – | – |
| O=C(Cn1c[n+](CC(=O)c2ccc(-c3ccccc3)cc2)c2ccccc21)Nc1cccc2cccnc12 | – | – | – | – | 3.05 | – | – | – | > 100 | 3.02 | – | – | – | 1.62 | – | – | – | 0.639 | 1.52 |
| NNC(=O)c1n[nH]nc1C(=O)NN | > 100 | > 100 | 33.1 | > 100 | – | > 100 | > 100 µM | > 100 | > 100 | > 100 | – | – | – | – | – | – | – | – | – |
| O=C1/C(=C/c2ccccc2S)N=C(c2ccccc2)N1c1nc2c(Cl)cc(Cl)cc2s1 | > 100 | 40.2 | – | 52.9 | > 100 | 30.2 | 73.3 µM | 66.2 | 81.5 | – | – | – | – | – | – | – | – | – | – |
| CCCCNC(=S)Nc1nc(C(=O)NNC(=S)Nc2ccccc2)cs1 | > 100 | > 100 | – | > 100 | > 100 | > 100 | > 100 µM | > 100 | – | > 100 | – | – | – | – | – | – | – | – | – |
| Nc1nc(N)c2c3c(cnc2n1)CC(c1ccccc1)CC3 (configuration not stated) | > 100 | > 100 | > 100 | > 100 | > 100 | > 100 | 26.6 µM | > 100 | > 100 | – | – | – | – | – | – | – | – | – | – |
| COc1ccc(C(OCC2OC(n3cc(C)c(=O)[nH]c3=O)CC2n2cc(Cn3cc(Cl)c(=O)[nH]c3=O)nn2)(c2ccccc2)c2ccccc2)cc1 (configuration not stated) | – | > 100 | > 100 | > 100 | > 100 | > 100 | > 100 µM | > 100 | – | > 100 | – | – | – | – | – | – | – | – | – |
| CC#CCOC(=O)c1ccccc1OC(C)=O | > 100 | – | – | > 100 | > 100 | > 100 | > 100 µM | > 100 | > 100 | > 100 | – | – | – | – | – | – | – | – | – |
| COC(=O)C(Cc1c[nH]c2ccccc12)NP(=O)(O)OCC1OC(n2cc(I)c(=O)[nH]c2=O)CC1O (configuration not stated) | > 100 | > 100 | > 100 | – | > 100 | > 100 | > 100 µM | > 100 | > 100 | > 100 | – | – | – | – | – | – | – | – | – |
